Earlier results in PMC2748991 (Planta medica, 2009).

Tests used:
elastase = conditions: ref [3],[4]
trypsin = conditions: ref [5]

Row | Substance | elastase inhibition (in words) (elastase) | trypsin inhibition (in words) (trypsin)
1 | lyngbyastatin 5 | potent inhibitors | 
2 | lyngbyastatin 6 | potent inhibitors | 
3 | pompanopeptin A |  | trypsin inhibitor
